Key:
Test in all cases: in vitro susceptibility, MIC by mini broth dilution
Format in all cases: cell-based
[1] = system: Staphylococcus aureus CVCC26003; details: strain CVCC26003
Method in brief: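 S. aureus CVCC26003 was revived and subcultured twice, 20 h each at 35° C, on solid medium, then diluted 1:200 in CAMHB liquid medium. Compounds received an 11-step two-fold DMSO dilution in parallel duplicate rows. MIC was read by mini broth dilution per NCCLS guidance.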

[2] = system: Streptococcus equines CVCC556; details: strain CVCC556
Method in brief: (§1)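 Broth microdilution MIC, NCCLS method: 11-point two-fold DMSO compound series, duplicate rows, well 12 as control. Inoculum from 20 h, 35° C plate cultures, diluted 1:200 in broth.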

Haemophilus parasuis = system: Haemophilus parasuis
Method in brief: as §1

[3] = system: Pasteurella multocida CVCC399; details: strain CVCC399
Method in brief: as §1

[4] = system: Actinobacillus pleuropneumoniae CVCC262; details: strain CVCC262
Method in brief: as §1

| SMILES | MIC values, Staphylococcus aureus CVCC26003 [1] | MIC values, Streptococcus equines CVCC556 [2] | MIC values, Haemophilus parasuis (Haemophilus parasuis) | MIC values, Pasteurella multocida CVCC399 [3] [ug/mi] | MIC values, Actinobacillus pleuropneumoniae CVCC262 [4] |
| --- | --- | --- | --- | --- | --- |
| CC[C@H]1OC(=O)[C@H](C)[C@@H](O[C@H]2C[C@@](C)(OC)[C@](O)(CNCc3ccc(Cl)c(Cl)c3)[C@H](C)O2)[C@H](C)[C@@H](O[C@@H]2O[C@H](C)C[C@H](N(C)C)[C@H]2O)[C@](C)(O)C[C@@H](C)NC[C@H](C)[C@@H](O)[C@]1(C)O [syzx-57, (2R,3S,4R,5S,8R,10R,11R,12S,13S,14R)-13-[(2,6-dideoxy-3-C-methyl-3-O-methyl-4-C-[(3,4-dichloro-benzylamino)-methyl]-α-L-ribopyranosyl)oxy]-2-ethyl-3,4,10-trihydroxy-3,5,8,10,12,14-hexamethyl-11-[[3,4,6-trideoxy-3-(dimethylamino)-β-D-xylo-hexopyranosy]oxy]-1-oxa-7-azacyclopentadecan-15-one] | ≦0.25 ug/mi | 4 ug/mi | ≦0.25 ug/mi | 32 | ≦0.25 ug/mi |
| CC[C@H]1OC(=O)[C@H](C)[C@@H](O[C@H]2C[C@@](C)(OC)[C@](O)(CNc3ccc(Cl)nn3)[C@H](C)O2)[C@H](C)[C@@H](O[C@@H]2O[C@H](C)C[C@H](N(C)C)[C@H]2O)[C@](C)(O)C[C@@H](C)NC[C@H](C)[C@@H](O)[C@]1(C)O [syzx-32, (2R,3S,4R,5S,8R,10R,11R,12S,13S,14R)-13-[(2,6-dideoxy-3-C-methyl-3-O-methyl-4-C-[(6-chloro-pyridazin-3-yl-amino)-methyl]-α-L-ribopyranosyl)oxy]-2-ethyl-3,4,10-trihydroxy-3,5,8,10,12,14-hexamethyl-11-[[3,4,6-trideoxy-3-(dimethylamino)-β-D-xylo-hexopyranosy]oxy]-1-oxa-7-azacyclopentadecan-15-one] | 0.5 ug/mi | 0.25 ug/mi | 0.25 ug/mi | 1 | 0.5 ug/mi |
| C#CCNC[C@]1(O)[C@H](C)O[C@@H](O[C@H]2[C@H](C)[C@@H](O[C@@H]3O[C@H](C)C[C@H](N(C)C)[C@H]3O)[C@](C)(O)C[C@@H](C)NC[C@H](C)[C@@H](O)[C@](C)(O)[C@@H](CC)OC(=O)[C@@H]2C)C[C@@]1(C)OC [syzx-40, (2R,3S,4R,5S,8R,10R,11R,12S,13S,14R)-13-[(2,6-dideoxy-3-C-methyl-3-O-methyl-4-C-[[propargyl-amino]-methyl]-α-L-ribopyranosyl)oxy]-2-ethyl-3,4,10-trihydroxy-3,5,8,10,12,14-hexamethyl-11-[[3,4,6-trideoxy-3-(dimethylamino)-β-D-xylo-hexopyranosy]oxy]-1-oxa-7-azacyclopentadecan-15-one] | 0.5 ug/mi | 0.5 ug/mi | 0.5 ug/mi | 1 | 16 ug/mi |
| CCCN1C[C@H](C)[C@@H](O)[C@](C)(O)[C@@H](CC)OC(=O)[C@H](C)[C@@H](O[C@H]2C[C@@](C)(OC)[C@](O)(CN(C)CCO)[C@H](C)O2)[C@H](C)[C@@H](O[C@@H]2O[C@H](C)C[C@H](N(C)C)[C@H]2O)[C@](C)(O)C[C@H]1C [syzx-126] | 4 ug/mi | 0.5 ug/mi | 4 ug/mi | 2 | 4 ug/mi |
| C#CC=C(C)NC[C@]1(O)[C@H](C)O[C@@H](O[C@H]2[C@H](C)[C@@H](O[C@@H]3O[C@H](C)C[C@H](N(C)C)[C@H]3O)[C@](C)(O)C[C@@H](C)NC[C@H](C)[C@@H](O)[C@](C)(O)[C@@H](CC)OC(=O)[C@@H]2C)C[C@@]1(C)OC [syzx-62] | 0.5 ug/mi | ≦0.25 ug/mi | ≦0.25 ug/mi | 0.5 | 8 ug/mi |
| CCCN1C[C@H](C)[C@@H](O)[C@](C)(O)[C@@H](CC)OC(=O)[C@H](C)[C@@H](O[C@H]2C[C@@](C)(OC)[C@](O)(CNCc3ccc(Cl)cc3)[C@H](C)O2)[C@H](C)[C@@H](O[C@@H]2O[C@H](C)C[C@H](N(C)C)[C@H]2O)[C@](C)(O)C[C@H]1C [syzx-120] | 0.25 ug/mi | 0.25 ug/mi | 0.25 ug/mi | 0.5 | 0.25 ug/mi |
| CCCCN(C)C[C@]1(O)[C@H](C)O[C@@H](O[C@H]2[C@H](C)[C@@H](O[C@@H]3O[C@H](C)C[C@H](N(C)C)[C@H]3O)[C@](C)(O)C[C@@H](C)NC[C@H](C)[C@@H](O)[C@](C)(O)[C@@H](CC)OC(=O)[C@@H]2C)C[C@@]1(C)OC [syzx-98, (2R,3S,4R,5S,8R,10R,11R,12S,13S,14R)-13-[(2,6-dideoxy-3-C-methyl-3-O-methyl-4-C-[(N-methyl-butyl-amino)-methyl]-α-L-ribopyranosyl)oxy]-2-ethyl-3,4,10-trihydroxy-3,5,8,10,12,14-hexamethyl-11-[[3,4,6-trideoxy-3-(dimethylamino)-β-D-xylo-hexopyranosy]oxy]-1-oxa-7-azacyclopentadecan-15-one] | 1 ug/mi | 0.25 ug/mi | 0.5 ug/mi | 2 | 0.5 ug/mi |
| CC[C@H]1OC(=O)[C@H](C)[C@@H](O[C@H]2C[C@@](C)(OC)[C@](O)(CNCc3ccc(F)cc3)[C@H](C)O2)[C@H](C)[C@@H](O[C@@H]2O[C@H](C)C[C@H](N(C)C)[C@H]2O)[C@](C)(O)C[C@@H](C)NC[C@H](C)[C@@H](O)[C@]1(C)O [syzx-8, (2R,3S,4R,5S,8R,10R,11R,12S,13S,14R)-13-[(2,6-dideoxy-3-C-methyl-3-O-methyl-4-C-[(4-fluorobenzylamino)methyl]-α-L-ribopyranosyl)oxy]-2-ethyl-3,4,10-trihydroxy-3,5,8,10,12,14-hexamethyl-11-[[3,4,6-trideoxy-3-(dimethylamino)-β-D-xylo-hexopyranosy]oxy]-1-oxa-7-azacyclopentadecan-15-one] | ≦0.25 ug/mi | ≦0.25 ug/mi | ≦0.25 ug/mi | 0.25 | 0.5 ug/mi |

Results, then the compound that gave them:

| MIC values, Staphylococcus aureus CVCC26003 [1] | MIC values, Streptococcus equines CVCC556 [2] | MIC values, Haemophilus parasuis (Haemophilus parasuis) | MIC values, Pasteurella multocida CVCC399 [3] [ug/mi] | MIC values, Actinobacillus pleuropneumoniae CVCC262 [4] | SMILES |
| --- | --- | --- | --- | --- | --- |
| 4 ug/mi | 0.5 ug/mi | 4 ug/mi | 4 | 4 ug/mi | CCCN1C[C@H](C)[C@@H](O)[C@](C)(O)[C@@H](CC)OC(=O)[C@H](C)[C@@H](O[C@H]2C[C@@](C)(OC)[C@](O)(CN3CCOCC3)[C@H](C)O2)[C@H](C)[C@@H](O[C@@H]2O[C@H](C)C[C@H](N(C)C)[C@H]2O)[C@](C)(O)C[C@H]1C [syzx-204] |
| 0.25 ug/mi | 0.5 ug/mi | 0.25 ug/mi | 2 | 0.25 ug/mi | CCCN1C[C@H](C)[C@@H](O)[C@](C)(O)[C@@H](CC)OC(=O)[C@H](C)[C@@H](O[C@H]2C[C@@](C)(OC)[C@](O)(CNCCc3ccncc3)[C@H](C)O2)[C@H](C)[C@@H](O[C@@H]2O[C@H](C)C[C@H](N(C)C)[C@H]2O)[C@](C)(O)C[C@H]1C [syzx-164] |
| 2 ug/mi | 0.25 ug/mi | 4 ug/mi | 8 | 4 ug/mi | CCCN1C[C@H](C)[C@@H](O)[C@](C)(O)[C@@H](CC)OC(=O)[C@H](C)[C@@H](O[C@H]2C[C@@](C)(OC)[C@](O)(CNc3cc(Cl)ccc3C)[C@H](C)O2)[C@H](C)[C@@H](O[C@@H]2O[C@H](C)C[C@H](N(C)C)[C@H]2O)[C@](C)(O)C[C@H]1C [syzx-234] |
| 4 ug/mi | 0.5 ug/mi | 4 ug/mi | 4 | 4 ug/mi | CCCN1C[C@H](C)[C@@H](O)[C@](C)(O)[C@@H](CC)OC(=O)[C@H](C)[C@@H](O[C@H]2C[C@@](C)(OC)[C@](O)(CNCCCC(OC)OC)[C@H](C)O2)[C@H](C)[C@@H](O[C@@H]2O[C@H](C)C[C@H](N(C)C)[C@H]2O)[C@](C)(O)C[C@H]1C [syzx-205] |
| 0.25 ug/mi | 0.25 ug/mi | 0.25 ug/mi | 0.5 | 0.25 ug/mi | CCCN1C[C@H](C)[C@@H](O)[C@](C)(O)[C@@H](CC)OC(=O)[C@H](C)[C@@H](O[C@H]2C[C@@](C)(OC)[C@](O)(CNCCc3ccc(S(N)(=O)=O)cc3)[C@H](C)O2)[C@H](C)[C@@H](O[C@@H]2O[C@H](C)C[C@H](N(C)C)[C@H]2O)[C@](C)(O)C[C@H]1C [syzx-161] |
| 0.5 ug/mi | 0.25 ug/mi | 0.5 ug/mi | 2 | 0.25 ug/mi | CCCN1C[C@H](C)[C@@H](O)[C@](C)(O)[C@@H](CC)OC(=O)[C@H](C)[C@@H](O[C@H]2C[C@@](C)(OC)[C@](O)(CNc3cc(OC)cc(OC)c3)[C@H](C)O2)[C@H](C)[C@@H](O[C@@H]2O[C@H](C)C[C@H](N(C)C)[C@H]2O)[C@](C)(O)C[C@H]1C [syzx-176] |

Source: patent US9765105B2, “Macrolide compound” (Pulike Biological Engineering, Inc., priority 2013, dated 2017)
